According to patent US7977348B2, “Polymorphic forms of imatinib mesylate and processes for preparation of novel crystalline forms as well as amorphous and form α” (Sicor Inc., priority 2006, dated 2011):

How the values were obtained:
[1] = Tablet pressing followed by PXRD analysis of the solid form; format: physicochemical; settings: 200 mg tablet with 86 mg imatinib mesylate substance and excipients
Protocol: XRD diffraction was performed on X-Ray powder diffractometer: Philips X'pert Pro powder diffractometer, Cu-tube, scanning parameters: CuKα radiation, λ=1.5418 Å. Continuous scan at a rate of: 0.02° 2theta/0.3 sec.
Form V, having the main PXRD peaks at 9.9, 11.7, 13.3, 16.6, and 22.1±0.2 degrees two-theta, and all the components presented in the below table were weighed together and mixed to obtain a tablet.
Form X, having the main PXRD peaks at 6.0, 8.6, 11.4, 14.2, and 18.3±0.2 degrees two-theta, and all the components presented in the below table were weighed together and mixed to obtain a tablet.
Amorphous Imatinib mesylate and all the components presented in the below table were weighed together and mixed to obtain a tablet.

[2] = Stability of the crystalline form under pressure and under heating; settings: solid form
[3] = Particle size of the crystalline form; format: physicochemical
[4] = Moisture sensitivity / hygroscopicity of the solid phase noted during drying; format: physicochemical; settings: filter cake dried under nitrogen stream
Protocol: Imatinib base (3 g, 0.0061 mole) was suspended in dry ethanol (60 ml). The suspension was cooled to −40° C. and then an ethanol-solution of methanesulfonic acid (0.591 g in 3.59 ml; 0.0061 mole) was added at once. Exactly after 5 min of stirring at −40° C. the seeding crystal (Form IV, 0.1 g) was put into the suspension. The stirring was maintained for additional 25 minutes in the temperature range from −40° C. to −35° C. Then the suspension was let to stay in freezer at −28° C. for 14 hours. In the course of standing, the major part of crystalline phase was created—important requirement is absence of motion. After standing the suspension was diluted with MTBE (50 ml) and crystalline product was filtered. […] Imatinib mesylate (Form IV) was obtained (3.61 g; yield: 90.1%).
Imatinib base (75 g, 0.152 mole) was placed into double-jacketed glass-reactor and suspended with water-1,3-dioxolane mixture (37.5 ml: 712.5 ml). The content of the reactor was kept (for all the time) under gentle nitrogen stream. The temperature was adjusted at 20° C., undiluted methanesulphonic acid (14.21 g, 0.148 mole) was added (at once or dropwise during a few minutes). The two-phase liquid was stirred cca 50 min at 20° C. […] The drying process was monitored by measuring LOD (loss on drying)—it was finished when LOD reached 11-12%. […]

Row | Compound | solid form found by PXRD after the tablet was pressed [1] | stability under pressure [2] | stable under heating up to a temperature of [2] | particle size [3] | hygroscopicity / moisture sensitivity of solid phase [4]
1 | CS(=O)(=O)O.Cc1ccc(NC(=O)c2ccc(CN3CCN(C)CC3)cc2)cc1Nc1nccc(-c2cccnc2)n1 [Form V, 4-(4-methylpiperazin-1-ylmethyl)-N-[4-methyl-3-[(4-pyrinin-3-yl)pyrimidin-2-yloamino]phenyl]benzamide mesylate] | belong to form V | stable under pressure | ≤ 80 °C |  | 
2 | CS(=O)(=O)O.Cc1ccc(NC(=O)c2ccc(CN3CCN(C)CC3)cc2)cc1Nc1nccc(-c2cccnc2)n1 [Amorphous Imatinib mesylate, 4-(4-methylpiperazin-1-ylmethyl)-N-[4-methyl-3-[(4-pyrinin-3-yl)pyrimidin-2-yloamino]phenyl]benzamide mesylate, reference compound] | retaining the amorphous form |  |  |  | 
3 | CS(=O)(=O)O.Cc1ccc(NC(=O)c2ccc(CN3CCN(C)CC3)cc2)cc1Nc1nccc(-c2cccnc2)n1 [Form VII, 4-(4-methylpiperazin-1-ylmethyl)-N-[4-methyl-3-[(4-pyrinin-3-yl)pyrimidin-2-yloamino]phenyl]benzamide mesylate] |  |  |  | less than 100 microns | 
4 | CS(=O)(=O)O.Cc1ccc(NC(=O)c2ccc(CN3CCN(C)CC3)cc2)cc1Nc1nccc(-c2cccnc2)n1 [Form X, 4-(4-methylpiperazin-1-ylmethyl)-N-[4-methyl-3-[(4-pyrinin-3-yl)pyrimidin-2-yloamino]phenyl]benzamide mesylate] | belong to form X |  |  | less than 100 microns | 
5 | CS(=O)(=O)O.Cc1ccc(NC(=O)c2ccc(CN3CCN(C)CC3)cc2)cc1Nc1nccc(-c2cccnc2)n1 [Form VI, 4-(4-methylpiperazin-1-ylmethyl)-N-[4-methyl-3-[(4-pyrinin-3-yl)pyrimidin-2-yloamino]phenyl]benzamide mesylate] |  |  |  | less than 100 microns | very hydroscopic
6 | CS(=O)(=O)O.Cc1ccc(NC(=O)c2ccc(CN3CCN(C)CC3)cc2)cc1Nc1nccc(-c2cccnc2)n1 [Form IV, 4-(4-methylpiperazin-1-ylmethyl)-N-[4-methyl-3-[(4-pyrinin-3-yl)pyrimidin-2-yloamino]phenyl]benzamide mesylate] |  |  |  | less than 100 microns | moisture sensitive
